Data as given in PubChem BioAssay AID248 (DTP/NCI, 2004).
Values joined by “and” are separate entries in the source; they are usually repeats but may differ in a detail not shown here. Equal values may be shown once. Inconclusive results and toxic doses are left out. No stated cut-off is given here; in the data, active means T/C of 150% or more; inactive means T/C below 125%.

Test system: L1210 leukemia ip in BDF1 mice, survival T/C
Assay: NCI In Vivo Anticancer Drug Screen. Data for tumor model L1210 Leukemia (intraperitoneal) in B6D2F1 (BDF1) mice
Conditions: endpoint: mean survival time, higher = longer survival
In short: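 Survival endpoint. Drug-treated group vs vehicle group, expressed as T divided by C. Tumor passaged by transplantation.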

[1] = dose: 100.0 mg/kg/injection, schedule: Q04DX002 (ip), vehicle: saline with Tween-80
[2] = dose: 200.0 mg/kg/injection, schedule: Q04DX002 (ip), vehicle: saline with Tween-80
[3] = dose: 100.0 mg/kg/injection, schedule: Q04DX003 (ip), vehicle: saline with Tween-80
[4] = dose: 200.0 mg/kg/injection, schedule: Q04DX003 (ip), vehicle: saline with Tween-80
[5] = dose: 400.0 mg/kg/injection, schedule: Q04DX003 (ip), vehicle: saline with Tween-80
[6] = dose: 100.0 mg/kg/injection, schedule: Q01DX001 (ip), vehicle: saline
[7] = dose: 200.0 mg/kg/injection, schedule: Q01DX001 (ip), vehicle: saline
[8] = dose: 400.0 mg/kg/injection, schedule: Q01DX001 (ip), vehicle: saline
[9] = dose: 100.0 mg/kg/injection, schedule: Q01DX009 (ip), vehicle: Klucel (hydroxypropylcellulose) (HPC)
[10] = dose: 200.0 mg/kg/injection, schedule: Q01DX009 (ip), vehicle: Klucel (hydroxypropylcellulose) (HPC)
[11] = dose: 400.0 mg/kg/injection, schedule: Q01DX009 (ip), vehicle: Klucel (hydroxypropylcellulose) (HPC)
[12] = dose: 100.0 mg/kg/injection, schedule: Q04DX003 (ip), vehicle: Klucel (hydroxypropylcellulose) (HPC)
[13] = dose: 200.0 mg/kg/injection, schedule: Q04DX003 (ip), vehicle: Klucel (hydroxypropylcellulose) (HPC)
[14] = dose: 400.0 mg/kg/injection, schedule: Q04DX003 (ip), vehicle: Klucel (hydroxypropylcellulose) (HPC)
[15] = dose: 12.5 mg/kg/injection, schedule: Q01DX009 (ip), vehicle: Klucel (hydroxypropylcellulose) (HPC)
[16] = dose: 12.5 mg/kg/injection, schedule: Q04DX003 (ip), vehicle: Klucel (hydroxypropylcellulose) (HPC)
[17] = dose: 25.0 mg/kg/injection, schedule: Q01DX009 (ip), vehicle: Klucel (hydroxypropylcellulose) (HPC)
[18] = dose: 25.0 mg/kg/injection, schedule: Q04DX003 (ip), vehicle: Klucel (hydroxypropylcellulose) (HPC)
[19] = dose: 50.0 mg/kg/injection, schedule: Q04DX003 (ip), vehicle: Klucel (hydroxypropylcellulose) (HPC)
[20] = dose: 50.0 mg/kg/injection, schedule: Q01DX009 (ip), vehicle: Klucel (hydroxypropylcellulose) (HPC)

Measured: T/C

CCC(=O)N/N=C(\N)N[N+](=O)[O-]
inactive: dose: 87.5 mg/kg/injection, schedule: Q04DX003 (ip), vehicle: Klucel (hydroxypropylcellulose) (HPC) 102 % of control | dose: 175.0 mg/kg/injection, schedule: Q04DX003 (ip), vehicle: Klucel (hydroxypropylcellulose) (HPC) 105 % of control | dose: 350.0 mg/kg/injection, schedule: Q04DX003 (ip), vehicle: Klucel (hydroxypropylcellulose) (HPC) 103 % of control

c1ccc2c(c1)CCC1C3CCCC3OCN21 (stereo not drawn)
inactive: dose: 50.0 mg/kg/injection, schedule: Q04DX002 (ip), vehicle: saline with Tween-80 101 % of control | [1] 101 % of control | [2] 104 % of control

O=C(Nc1cccc2ccccc12)OCc1ccco1
inactive: dose: 100.0 mg/kg/injection, schedule: Q01DX001 (ip), vehicle: saline with Tween-80 96 % of control | dose: 100.0 mg/kg/injection, schedule: Q01DX009 (ip), vehicle: saline with Tween-80 93 % of control and 96 % of control | [1] 96 % of control and 118 % of control | [3] 105 % of control | dose: 200.0 mg/kg/injection, schedule: Q01DX001 (ip), vehicle: saline with Tween-80 97 % of control | dose: 200.0 mg/kg/injection, schedule: Q01DX009 (ip), vehicle: saline with Tween-80 100 % of control and 86 % of control | [2] 96 % of control and 91 % of control | [4] 100 % of control | dose: 400.0 mg/kg/injection, schedule: Q01DX001 (ip), vehicle: saline with Tween-80 103 % of control | dose: 400.0 mg/kg/injection, schedule: Q01DX009 (ip), vehicle: saline with Tween-80 93 % of control and 94 % of control | dose: 400.0 mg/kg/injection, schedule: Q04DX002 (ip), vehicle: saline with Tween-80 104 % of control | [5] 103 % of control

CC1CN(C2CC3OCC3O2)C(=O)NC1=O (stereo not drawn)
inactive: [6] 103 % of control | [7] 98 % of control | [8] 98 % of control

O=C(N/N=C/c1ccc(Cl)cc1)c1cccc([N+](=O)[O-])c1
inactive: [9] 94 % of control | [10] 94 % of control | [11] 95 % of control

CCCCCCCC(=O)Nc1cccc(C)c1C
inactive: [3] 101 % of control | [4] 87 % of control | [5] 101 % of control

CCOC(=O)c1cccs1
inactive: [9] 99 % of control | [12] 103 % of control | [10] 95 % of control | [13] 100 % of control | [11] 97 % of control | [14] 105 % of control

O=C(NC1CCCCC1c1ccccc1)c1ccccc1 (stereo not drawn)
inactive: dose: 75.0 mg/kg/injection, schedule: Q01DX001 (ip), vehicle: carboxymethylcellulose (CMC) 97 % of control and 95 % of control | dose: 150.0 mg/kg/injection, schedule: Q01DX001 (ip), vehicle: carboxymethylcellulose (CMC) 97 % of control and 91 % of control | dose: 300.0 mg/kg/injection, schedule: Q01DX001 (ip), vehicle: carboxymethylcellulose (CMC) 94 % of control and 89 % of control

Nc1nc[nH]c1C(=O)NO
inactive: [6] 100 % of control | [7] 103 % of control | [8] 92 % of control

O=C1C2C(C(=O)N1c1ccc(Br)cc1)C1(Cl)C(Cl)=C(Cl)C2(Cl)C1(Cl)Cl (stereo not drawn)
inactive: [9] 104 % of control | [12] 101 % of control | [10] 102 % of control | [13] 111 % of control | [11] 96 % of control | [14] 104 % of control

CCSC1C(O)C(C(O)CO)OC1n1cc(C)c(=O)[nH]c1=O (stereo not drawn)
inactive: dose: 100.0 mg/kg/injection, schedule: Q01DX005 (ip), vehicle: saline 102 % of control | dose: 200.0 mg/kg/injection, schedule: Q01DX005 (ip), vehicle: saline 107 % of control

CCCCCCCCC[n+]1cccc(C#N)c1
inactive: dose: 18.75 mg/kg/injection, schedule: Q01DX009 (ip), vehicle: saline 90 % of control | dose: 37.5 mg/kg/injection, schedule: Q01DX009 (ip), vehicle: saline 88 % of control | dose: 37.5 mg/kg/injection, schedule: Q04DX003 (ip), vehicle: acetone 100 % of control | dose: 75.0 mg/kg/injection, schedule: Q01DX001 (ip), vehicle: saline 100 % of control | dose: 75.0 mg/kg/injection, schedule: Q01DX009 (ip), vehicle: saline 90 % of control | dose: 75.0 mg/kg/injection, schedule: Q04DX003 (ip), vehicle: acetone 97 % of control | dose: 150.0 mg/kg/injection, schedule: Q01DX001 (ip), vehicle: saline 102 % of control | dose: 150.0 mg/kg/injection, schedule: Q04DX003 (ip), vehicle: acetone 105 % of control

COc1cc(Cc2nccc3cc(OC)c(OC)cc23)c(C(C)=O)c(OC)c1
inactive: dose: 5.0 mg/kg/injection, schedule: Q01DX009 (ip), vehicle: saline 113 % of control | dose: 10.0 mg/kg/injection, schedule: Q01DX009 (ip), vehicle: saline 118 % of control | dose: 20.0 mg/kg/injection, schedule: Q01DX009 (ip), vehicle: saline 109 % of control | dose: 40.0 mg/kg/injection, schedule: Q01DX009 (ip), vehicle: saline 99 % of control | dose: 80.0 mg/kg/injection, schedule: Q01DX009 (ip), vehicle: saline 95 % of control

O=C(O)CCSSc1ccc([N+](=O)[O-])cc1[N+](=O)[O-]
inactive: [15] 96 % of control | [16] 98 % of control | [17] 99 % of control | [18] 107 % of control | [19] 105 % of control

CCOC(=O)c1ccc(NS(=O)(=O)c2ccc(NC(C)=O)cc2)cc1
inactive: dose: 100.0 mg/kg/injection, schedule: Q04DX002 (ip), vehicle: Klucel (hydroxypropylcellulose) (HPC) 88 % of control | dose: 200.0 mg/kg/injection, schedule: Q04DX002 (ip), vehicle: Klucel (hydroxypropylcellulose) (HPC) 94 % of control | dose: 400.0 mg/kg/injection, schedule: Q04DX002 (ip), vehicle: Klucel (hydroxypropylcellulose) (HPC) 103 % of control

CN(C)Cc1ccccc1COC(=O)c1ccc([N+](=O)[O-])cc1
inactive: dose: 75.0 mg/kg/injection, schedule: Q04DX002 (ip), vehicle: Klucel (hydroxypropylcellulose) (HPC) 97 % of control | dose: 150.0 mg/kg/injection, schedule: Q04DX002 (ip), vehicle: Klucel (hydroxypropylcellulose) (HPC) 105 % of control | dose: 300.0 mg/kg/injection, schedule: Q04DX002 (ip), vehicle: Klucel (hydroxypropylcellulose) (HPC) 97 % of control

O=C(O)C12CCC(CC1)C1CCC2CC1
inactive: dose: 12.5 mg/kg/injection, schedule: Q04DX002 (ip), vehicle: Klucel (hydroxypropylcellulose) (HPC) 101 % of control | dose: 25.0 mg/kg/injection, schedule: Q04DX002 (ip), vehicle: Klucel (hydroxypropylcellulose) (HPC) 105 % of control | dose: 50.0 mg/kg/injection, schedule: Q04DX002 (ip), vehicle: Klucel (hydroxypropylcellulose) (HPC) 116 % of control

c1ccc2oc(N3CCN(c4nc5ccccc5o4)CC3)nc2c1
inactive: dose: 100.0 mg/kg/injection, schedule: Q01DX001 (ip), vehicle: carboxymethylcellulose (CMC) 102 % of control | dose: 200.0 mg/kg/injection, schedule: Q01DX001 (ip), vehicle: carboxymethylcellulose (CMC) 91 % of control | dose: 400.0 mg/kg/injection, schedule: Q01DX001 (ip), vehicle: carboxymethylcellulose (CMC) 88 % of control

CN(NC(=O)OCc1ccccc1)C(=O)OCc1ccccc1
inactive: [15] 98 % of control | [16] 93 % of control | [17] 93 % of control | [18] 103 % of control | [20] 108 % of control | [19] 112 % of control | [9] 90 % of control | [12] 89 % of control | [10] 90 % of control | [13] 106 % of control | [14] 110 % of control

COc1cc(/C=N/NC(=O)c2ccccc2Cl)ccc1O
inactive: dose: 12.5 mg/kg/injection, schedule: Q01DX009 (ip), vehicle: saline with Tween-80 91 % of control | dose: 25.0 mg/kg/injection, schedule: Q01DX009 (ip), vehicle: saline with Tween-80 88 % of control | dose: 50.0 mg/kg/injection, schedule: Q01DX009 (ip), vehicle: saline with Tween-80 95 % of control and 97 % of control

O=C1C=C(NCCc2cnc[nH]2)c2ccccc2C1=O
inactive: [20] 92 % of control | [9] 103 % of control
